Assay results: patent publication US7175855B1, “Ziprasidone suspension” (Pfizer Inc., priority 1999, dated 2007)

Experiment: Ability of surfactants to wet ziprasidone HCl monohydrate in water (drug wetting time)
Format: physicochemical
Experimental: Different surfactants were tested for their ability to wet ziprasidone HCl monohydrate in water: sodium lauryl sulfate (SLS), MIGLYOL® (registered trademark of Dynamit Nobel Aktiengesellschaft, Germany) Triglyceride (810), and polysorbate-80. In three separate 100 mL volumes of water, each surfactant listed above was added in an amount to make a 1% solution. MIGLYOL® was added in excess due to its low solubility. While stirring at 200 rpm with an overhead stirrer, to each of the three surfactant solutions was added 1.132 g of ziprasidone […] (equivalent to 10 mgA/ml).

CCCCCCCCCCCCOS(=O)(=O)[O-].[Na+] [SLS, sodium lauryl sulfate]
observed rate of wetting (1% surfactant solution in 100 mL water (MIGLYOL in excess), 1.132 g ziprasidone (10 mgA/ml), stirring at 200 rpm): >20 min | foaming during wetting (in words) (wetting agents tested with ziprasidone hydrochloride in water): caused foaming before adequate wetting could be obtained
